Assay results from US20160304466A1, “NOVEL COMPOUNDS AS JNK KINASE INHIBITORS” (THE SCRIPPS RESEARCH INSTITUTE, priority 2013, published 2016).
pEC50: −log10 of the molar value.

Key:
[1] = target: JNK3/SAPK1b, Active (activated JNK3α1) (Homo sapiens, UniProt P53779); assay: Biochemical inhibition of JNK3 (HTRF enzyme inhibition assay); conditions: for pEC50: Table 1, compounds of formula (I), mean of n repeats; for IC50: Table 2, compounds of formula (II), read-out: JNK3 (nM) JNK activity (IC50)
Protocol: Enzyme inhibition studies were performed in 384-well polystyrene HTRF plates (Grainier) for 22 min at ambient temperature (˜22° C.) with 0.2 μM biotinylated FL-ATF2, 1 μM ATP, 0.75 nM activated JNK3α1 (with a control in the absence of kinase for determining the basal signal) in 10 μL volumes containing the final concentrations of the following: 50 mM Hepes, pH 7.0, 2.5 mM MgCl2, 0.1 mg/ml bovine serum albumin, 1 mM DL-dithiothreitol, 0.01% Triton X-100 (all from Sigma-Aldrich), and 5% DMSO (with or without compound). A 10 point titration of all compounds was carried out in 3-fold dilutions from 10 pM-2000 nM. After 22 min, the kinase reaction was terminated by addition of 10 μl of quenching solution [50 mM Hepes, pH 7.0, with 14 mM EDTA, 0.01% Triton X-100, 400 mM KF (all from Sigma-Aldrich)]. The detection reagents, streptavidin-x1APC (200 nM) and europium cryptate-labeled rabbit polyclonal anti-phospho-ATF2 (1 nM), were from Cis-Bio. The HTRF signal was detected using an Envision plate reader (Perkin Elmer) 1 h post-quenching. The data from multiple different experiments were averaged and presented as the mean±standard deviation. IC50 values were determined by fitting the data to the equation for a four-parameter logistic. p38 enzyme inhibition assays were performed identically to the JNK3 assays with the exception that the reaction time was […], 0.5 μM biotinylated FL-ATF2, ATP=11 μM, and p38 (Millipore)=3 nM.

JNK2α2/SAPK1c, active = JNK2α2/SAPK1c, active (Homo sapiens, UniProt P45984); assay: Biochemical inhibition of JNK2; conditions: Table 1, compounds of formula (I); mean of n repeats
Protocol: A 10 point titration of all compounds was carried out in 3-fold dilutions from 10 pM-2000 nM. After 22 min, the kinase reaction was terminated by addition of 10 μl of quenching solution [50 mM Hepes, pH 7.0, with 14 mM EDTA, 0.01% Triton X-100, 400 mM KF (all from Sigma-Aldrich)]. The detection reagents, streptavidin-x1APC (200 nM) and europium cryptate-labeled rabbit polyclonal anti-phospho-ATF2 (1 nM), were from Cis-Bio. The HTRF signal was detected using an Envision plate reader (Perkin Elmer) 1 h post-quenching. The data from multiple different experiments were averaged and presented as the mean±standard deviation.

JNK1α1/SAP1α, Active = JNK1α1/SAP1α, Active (Homo sapiens, UniProt P45983); assay: Biochemical inhibition of JNK1; conditions: for pEC50: Table 1, compounds of formula (I), mean of n repeats; for IC50: Table 2, compounds of formula (II), read-out: JNK1 (nM) JNK activity (IC50)
JNK1α1/SAP1α, Active, sequence (P45983 1-384 isoform P45983-2): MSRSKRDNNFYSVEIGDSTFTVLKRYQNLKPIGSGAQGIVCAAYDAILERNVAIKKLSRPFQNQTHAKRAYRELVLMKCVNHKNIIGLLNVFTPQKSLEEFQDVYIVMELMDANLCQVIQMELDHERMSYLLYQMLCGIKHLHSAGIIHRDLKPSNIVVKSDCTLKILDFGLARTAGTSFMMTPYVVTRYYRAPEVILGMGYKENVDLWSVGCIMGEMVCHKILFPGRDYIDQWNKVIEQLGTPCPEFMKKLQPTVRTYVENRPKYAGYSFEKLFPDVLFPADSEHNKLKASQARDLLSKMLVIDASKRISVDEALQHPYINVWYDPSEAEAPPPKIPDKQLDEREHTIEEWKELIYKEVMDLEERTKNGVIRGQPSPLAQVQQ

JNK3/SAPK1b, Active (activated JNK3α1), sequence (P53779 1-422 isoform P53779-2): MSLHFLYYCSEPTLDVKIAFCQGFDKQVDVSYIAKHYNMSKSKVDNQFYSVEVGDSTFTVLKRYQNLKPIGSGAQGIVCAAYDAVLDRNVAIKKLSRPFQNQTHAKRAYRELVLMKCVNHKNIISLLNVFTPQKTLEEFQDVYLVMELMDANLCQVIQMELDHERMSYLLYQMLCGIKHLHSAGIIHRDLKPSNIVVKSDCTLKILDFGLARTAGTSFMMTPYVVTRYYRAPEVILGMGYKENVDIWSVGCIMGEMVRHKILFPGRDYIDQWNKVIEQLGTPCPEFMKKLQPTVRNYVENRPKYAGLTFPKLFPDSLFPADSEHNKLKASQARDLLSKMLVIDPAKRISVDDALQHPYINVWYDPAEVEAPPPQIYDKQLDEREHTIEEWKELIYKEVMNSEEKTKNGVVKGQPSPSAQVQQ
JNK2α2/SAPK1c, active, sequence (P45984 whole entry): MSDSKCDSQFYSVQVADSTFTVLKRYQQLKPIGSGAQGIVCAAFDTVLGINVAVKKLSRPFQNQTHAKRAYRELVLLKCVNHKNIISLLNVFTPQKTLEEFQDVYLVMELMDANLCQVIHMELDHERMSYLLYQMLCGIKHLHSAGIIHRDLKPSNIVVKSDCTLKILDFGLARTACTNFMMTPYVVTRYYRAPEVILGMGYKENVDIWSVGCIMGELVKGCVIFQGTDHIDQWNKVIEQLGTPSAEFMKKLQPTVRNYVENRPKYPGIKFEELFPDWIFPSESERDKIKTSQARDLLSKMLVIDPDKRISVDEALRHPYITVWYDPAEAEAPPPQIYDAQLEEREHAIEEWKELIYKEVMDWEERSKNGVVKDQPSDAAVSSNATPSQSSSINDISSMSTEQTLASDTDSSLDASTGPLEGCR

Row | pEC50 [1] | pEC50 (JNK2α2/SAPK1c, active) | pEC50 (JNK1α1/SAP1α, Active) | IC50 [1] [nM] | IC50 (JNK1α1/SAP1α, Active) [nM] | SMILES
1 | – | – | – | > 1000 | 200 to 1000 | CC(C)n1c(=O)ccc2cnc(NC3CCN(Cc4ccccc4)CC3)nc21 [Example II-6, 2-(1-Benzyl-piperidin-4-ylamino)-8-isopropyl-8H-pyrido[2,3-d]pyrimidin-7-one]
2 | – | – | – | < 200 | < 200 | O=c1ccc2cnc(N[C@H]3CC[C@H](O)CC3)nc2n1C1CCCC1 [Example II-20, Trans-8-Cyclopentyl-2-(4-hydroxy-cyclohexylamino)-8H-pyrido[2,3-d]pyrimidin-7-one]
3 | – | – | – | 200 to 1000 | 200 to 1000 | CC(C)NC(=O)N1CCC(Nc2ncc3ccc(=O)n(C4CCCC4)c3n2)CC1 [Example II-21, 4-(8-Cyclopentyl-7-oxo-7,8-dihydro-pyrido[2,3-d]pyrimidin-2-ylamino)-piperidine-1-carboxylic acid isopropylamide]
4 | – | – | – | 200 to 1000 | 200 to 1000 | O=C(NC1CCCC1)N[C@H]1CC[C@H](Nc2ncc3ccc(=O)[nH]c3n2)CC1 [Example II-28]
5 | – | – | – | < 200 | < 200 | Cn1c(=O)ccc2cnc(N[C@H]3CC[C@H](O)CC3)nc21 [Example II-29, Trans 2-((4-hydroxycyclohexyl)amino)-8-methylpyrido[2,3-d]pyrimidin-7(8H)-one]
6 | – | – | – | – | > 1000 | c1cc2cnc(NC3CCNCC3)nc2nc1C1CC1 [Example II-40, 7-cyclopropyl-N-(piperidin-4-yl)pyrido[2,3-d]pyrimidin-2-amine]
7 | – | – | – | – | > 1000 | CCNC(=O)N1CCC(Nc2ncc3ccc(C4CC4)nc3n2)CC1 [Example II-42, 4-((7-cyclopropylpyrido[2,3-d]pyrimidin-2-yl)amino)-N-ethylpiperidine-1-carboxamide]
8 | – | – | – | – | > 1000 | c1cc2cnc(NC3CCNCC3)nc2nc1N1CCCC1 [Example II-49, N-(piperidin-4-yl)-7-(pyrrolidin-1-yl)pyrido[2,3-d]pyrimidin-2-amine]
9 | – | 6.00 to 6.70 | – | – | – | Cc1ccc(-c2ncn(-c3ccc(Nc4nccc(-c5cccc(N6CCOCC6)c5)n4)cc3)n2)cn1 [SR-3306, reference compound]

More lines, now with the values behind:

Row | SMILES | pEC50 [1] | pEC50 (JNK2α2/SAPK1c, active) | pEC50 (JNK1α1/SAP1α, Active) | IC50 [1] [nM] | IC50 (JNK1α1/SAP1α, Active) [nM]
10 | Cc1ccc(CNC(=O)c2cccc(-n3cc(NC(=O)Nc4ccccc4Cl)cn3)c2)cn1 [Example I-9, 3-(4-(3-(2-chlorophenyl)ureido)-1H-pyrazol-1-yl)-N-((6-methylpyridin-3-yl)methyl)benzamide] | 6.00 to 6.70 | 6.00 to 6.70 | < 6.00 | – | –
11 | Cc1cc(NC(=O)c2cccc(-n3cc(NC(=O)Nc4ccccc4Cl)cn3)c2)ccn1 [Example I-10, 3-(4-(3-(2-chlorophenyl)ureido)-1H-pyrazol-1-yl)-N-(2-methylpyridin-4-yl)benzamide] | > 6.70 | > 6.70 | < 6.00 | – | –
12 | Cc1cccc(CNC(=O)c2cccc(-n3cc(NC(=O)Nc4ccccc4Cl)cn3)c2)n1 [Example I-11, 3-(4-(3-(2-chlorophenyl)ureido)-1H-pyrazol-1-yl)-N-((6-methylpyridin-2-yl)methyl)benzamide] | 6.00 to 6.70 | 6.00 to 6.70 | < 6.00 | – | –
13 | Cc1cc(NC(=O)c2cccc(-n3cc(NC(=O)Nc4ccccc4Cl)cn3)c2)cc(C)n1 [Example I-22, 3-(4-(3-(2-chlorophenyl)ureido)-1H-pyrazol-1-yl)-N-(2,6-dimethylpyridin-4-yl)benzamide] | > 6.70 | 6.00 to 6.70 | < 6.00 | – | –
14 | Cc1cc(NC(=O)c2cccc(-n3cc(NC(=O)Nc4ccccc4C)cn3)c2)ccn1 [Example I-51, N-(2-methylpyridin-4-yl)-3-(4-(3-(o-tolyl)ureido)-1H-pyrazol-1-yl)benzamide] | > 6.70 | > 6.70 | 6.00 to 6.70 | – | –
15 | CC(C)n1cc(NC(=O)c2cccc(-n3cc(NC(=O)Nc4ccccc4Cl)cn3)c2)cn1 [Example I-86, 3-(4-(3-(2-chlorophenyl)ureido)-1H-pyrazol-1-yl)-N-(1-isopropyl-1H-pyrazol-4-yl)benzamide] | > 6.70 | 6.00 to 6.70 | < 6.00 | – | –
16 | Cn1nc(C2CC2)cc1NC(=O)c1cccc(-n2cc(NC(=O)Nc3ccccc3Cl)cn2)c1 [Example I-89, 3-(4-(3-(2-chlorophenyl)ureido)-1H-pyrazol-1-yl)-N-(3-cyclopropyl-1-methyl-1 H-pyrazol-5-yl)benzamide] | > 6.70 | > 6.70 | < 6.00 | – | –
17 | Cn1ccc(NC(=O)c2cccc(-n3cc(NC(=O)Nc4ccccc4Cl)cn3)c2)n1 [Example I-98, 3-(4-(3-(2-chlorophenyl)ureido)-1H-pyrazol-1-yl)-N-(1-methyl-1H-pyrazol-3-yl)benzamide] | > 6.70 | > 6.70 | 6.00 to 6.70 | – | –
18 | O=C(Nc1cnn(-c2cccc(C(=O)Nc3cnn(CCN4CCCC4)c3)c2)c1)Nc1ccccc1Cl [Example I-101, 3-(4-(3-(2-chlorophenyl)ureido)-1H-pyrazol-1-yl)-N-(1-(2-(pyrrolidin-1-yl)ethyl)-1H-pyrazol-4-yl)benzamide] | > 6.70 | > 6.70 | < 6.00 | – | –
19 | Cc1nn(CCN2CCCC2)cc1NC(=O)c1cccc(-n2cc(NC(=O)Nc3ccccc3Cl)cn2)c1 [Example I-104, 3-(4-(3-(2-chlorophenyl)ureido)-1H-pyrazol-1-yl)-N-(3-methyl-1-(2-(pyrrolidin-1-yl)ethyl)-1H-pyrazol-4-yl)benzamide] | > 6.70 | > 6.70 | < 6.00 | – | –
